Data from US20060167091A1, “Acaricide” (priority 2003, published 2006).

Tested on: Two-spotted spider mites
Experiment: Miticidal test on two-spotted spider mites
Assay type: in vivo, Tetranychus urticae Koch
Conditions: Tetranychus urticae, 48 h, 2 days after spraying, read-out: Mortality rate
Excerpt: Two-spotted spider mites from the Nagano prefecture, which are poorly sensitive to chemicals, were used as mite specimens. Preparation A and Preparation B were used as chemical specimens.
A plastic cup (trade name: KP-120, manufactured by Kohnoike plastic Co., Ltd.) was filled with tap water, and the plastic cup was covered with a lid having an incision therein. A piece of non-woven fabric (4.5×5.5 cm) was cut for about 4 cm parallel to its longer side 1 cm from the edge. The portion hanging loose was suspended inside the plastic cup through the incision. A kidney bean leaf (about 3.5×4.5 cm) was placed on the sufficiently soaked, non-woven fabric. Twenty female adults of two-spotted spider mites were released into each cup.
Preparation A and Preparation B each diluted with tap water to specific concentrations were mixed, and the mixture was sprayed in a volume of 2 ml using a spray tower (Potter Spray Tower, manufactured by Burkard Manufacturing Co. Ltd, at a spraying pressure of 5 lb/inch). The kidney bean leaf was placed in a thermostatic chamber having a temperature of 25±2° C. and a humidity of 60%. The numbers of live and dead mites were counted 2 days later. The mortality rate was calculated using the equation provided below.
For comparison, mortality rates were calculated in the same manner as above except that Formulation A and Formulation B each diluted with tap water to specific concentrations were used one without each other. Mortality rate=(1−V/W)×100 where V is the survival rate in the treated area, and W is the survival rate in the untreated area.
Furthermore, the effectiveness (E) anticipated from the miticide of the present invention was calculated using the Colby equation (Weeds 15, 20-22 (1967)) to obtain a mathematical effectiveness (%): E=x+y−(x·y/100) where E is the effectiveness expressed in % anticipated from Compound A and chlorfenapyr when used at concentrations of p and q, respectively; x is the effectiveness of Compound A when used at a concentration of p; and y is the effectiveness of chlorfenapyr when used at a concentration of q.

## COCCOC(=O)C(C#N)(C(=O)c1ccccc1C(F)(F)F)c1ccc(C(C)(C)C)cc1 (stereo not shown) [Compound A, methoxyethyl 2-(4-tert-butylphenyl)-2-(2-trifluoromethylbenzoyl)cyanoacetate]
Compound A 12.5 ppm alone (chlorfenapyr 0 ppm), female adults on kidney bean leaf
  mortality at 12.5 ppm: 19%
Compound A 25 ppm alone (chlorfenapyr 0 ppm)
  mortality at 25 ppm: 45%
Compound A 50 ppm alone (chlorfenapyr 0 ppm)
  mortality at 50 ppm: 48%
Compound A 100 ppm alone (chlorfenapyr 0 ppm)
  mortality at 100 ppm: 25%
Compound A 200 ppm alone (chlorfenapyr 0 ppm)
  mortality at 200 ppm: 66%

## CCOCn1c(-c2ccc(Cl)cc2)c(C#N)c(Br)c1C(F)(F)F [chlorfenapyr, 4-bromo-2-(4-chlorophenyl)-1-ethoxymethyl-5-trifluoromethylpyrrole-3-carbonitrile]
Chlorfenapyr 0.4 ppm alone (Compound A 0 ppm)
  mortality at 0.4 ppm: 0%
Chlorfenapyr 1 ppm alone (Compound A 0 ppm)
  mortality at 1 ppm: 0%
Chlorfenapyr 2 ppm alone (Compound A 0 ppm)
  mortality at 2 ppm: 0%
Chlorfenapyr 5 ppm alone (Compound A 0 ppm)
  mortality at 5 ppm: 0%
Chlorfenapyr 10 ppm alone (Compound A 0 ppm)
  mortality at 10 ppm: 84%
